Experimental data as given in PMC11249012 (Journal of Medicinal Chemistry, 2024).

Tested on: hyperacetylation of tubulin, H3K9 and H3K27
Assay: Western blot of tubulin and histone H3 hyperacetylation in 4T1 cells
Assay type: cell-based, mouse
Conditions: hybrids 10 μM, 6 h
Experimental: The potential for compounds as HDACi’s can be rapidly tested in cells in culture by monitoring the hyperacetylation of histone H3 and tubulin. H3 acetylation is controlled by multiple class I enzymes, and the class IIb enzyme HDAC6 regulates tubulin acetylation.[36]−[39] […] (Figure 4A).
Figure 4 Evidence for HDAC inhibition in 4T1 and 4TO7 TNBC cells. Western blots and quantification of triplicate biological replicates analyzing the effects of 1,25D (100 nM), SAHA (100 nM), and hybrids (10 μM) on hyperacetylation of tubulin (A,D), H3K9 (B,E), and H3K27 (C,F) in 4T1 (A–C) and 4TO7 cells (D–F).
After 6 h treatments, 4T1, 4T07, or B16-F10 cells were solubilized in lysis buffer (20 mM Tris, pH 8, 150 mM NaCl, 1% Triton X-100, 3.5 mM SDS, and 13 mM deoxycholic acid), and proteins were separated on a 4–15% Tris/glycine/SDS gel (Bio-Rad). Then, the proteins were transferred to a nitrocellulose membrane, followed by blocking in 5% skim milk in Tris-buffered saline (TBS, 1×) solution. After blocking, the membranes were incubated overnight at 4 °C with the primary antibodies against acetylated tubulin (Sigma-Aldrich—#T7451), tubulin (Sigma-Aldrich—#T9026), acetyl-histone H3(Lys9) (Merck Millipore—#07-352), acetyl-histone H3 (Lys27) (Abcam—#ab4729), total histone H3 (Cell Signaling Technology (CST)—#3638), and GAPDH (Abcam—#ab8245). Then, the membranes were incubated with antimouse (CST—#7076) or antirabbit (CST—#7074) IgG HRP-linked secondary antibodies at recommended concentrations. Finally, signals were detected using Clarity ECL substrates (Bio-Rad) and a ChemiDoc Imaging System. Changes in protein levels were quantified relative to control using Image Lab software (version 6.0.1) after normalization to GAPDH. Western blot experiments were carried out three times.

CCC(CC)(c1ccc(C(=O)NCCCCC(=O)NO)cc1)c1ccc(OCC(O)C(C)(C)C)c(C)n1 (centres unmarked) [ZG-126, 4-(3-(5-(2-Hydroxy-3,3-dimethylbutoxy)-6-methylpyridin-2-yl)pentan-3-yl)-N-(5-(hydroxyamino)-5-oxopentyl)benzamide]
histone H3 hyperacetylation at lysine 9 and 27 (H3K9 and H3K27): comparable or superior to AM-193
tubulin acetylation (SAHA 100 nM): by far the most efficacious
